Where two headings read alike, the source gives them in different places.

The data set can be described thus: Tissue half-life (t1/2) and Cmax in plasma, brain, kidney and liver after oral administration to CD-1 mice. It is filed as in vivo, mouse. The conditions noted are these: male, mouse. Here is the method: In vivo studies were conducted to observe the effect of the compounds of the invention in the subject animal. Male CD-1 mice, body weight of 20 grams at arrival, were used in these studies. Mice were given 30 mg/kg of compound in HPMC/Tween solution or suspension via oral gavage. Plasma, brain, and liver samples were collected at time periods of 1, 2, 4, 8, and 24 hours post dosing. One mouse was used per time point. Thus, a total of 5 mice were used for each compound tested. For sample collection, mice were euthanized with CO2. Blood samples were taken by cardiac puncture and kept on ice. Brain and liver samples were collected immediately after bleeding and the samples were kept on dry ice. For calculation of tissue half-lives (t1/2s), the terminal rate constant k was estimated by the absolute value of the slope of a log-linear regression of the terminal phase of the tissue concentration-time profile. The tissue half-life t1/2 is ln(2)/k.
The following table includes t1/2 data for plasma, brain, kidney, and liver obtained after oral administration.
Tissue Half-Life Data for Various Quinazolinone Compounds (PO)

The mark [1] stands for this setting: brain t1/2, 30 mg/kg oral gavage (PO), read-out: Half-Lives (h) Brain (converted).
[2] abbreviates: liver t1/2, 30 mg/kg oral gavage (PO), read-out: Half-Lives (h) Liver (converted).
Setting [3] is: plasma t1/2, 30 mg/kg oral gavage (PO), read-out: Half-Lives (h) Plasma (converted).

For the molecule `COc1ccc(CCn2c(-c3cccnc3)nc3cc(NC(=N[C@H]4C[C@H]5C[C@@H]([C@@H]4C)C5(C)C)N4CC(=O)N[C@@H](C)C4)ccc3c2=O)c(F)c1` [Example 216, (3S)-N-{3-[2-(2-fluoro-4-methoxyphenyl)ethyl]-4-oxo-2-pyridin-3-yl-3,4-dihydroquinazolin-7-yl}-3-methyl-5-oxo-N′-[(1S,2S,3S,5R)-2,6,6-trimethylbicyclo[3.1.1]hept-3-yl]piperazine-1-carboximidamide], the half-life is 14 h under setting [1]; 2.7 h (kidney t1/2, 30 mg/kg oral gavage (PO), read-out: Half-Lives (h) Kidney (converted)); 2.1 h under setting [2]; 1.9 h under setting [3].

For `C[C@@H]1[C@@H](N=C(Nc2ccc3c(=O)n(CCc4ccc(F)cc4)c(-c4cnccn4)nc3c2)N2CC(=O)N[C@@H](C)C2)C[C@H]2C[C@@H]1C2(C)C` [Example 218, (3S)-N-{3-[2-(4-fluorophenyl)ethyl]-4-oxo-2-pyrazin-2-yl-3,4-dihydroquinazolin-7-yl}-3-methyl-5-oxo-N′-[(1S,2S,3S,5R)-2,6,6-trimethylbicyclo[3.1.1]hept-3-yl]piperazine-1-carboximidamide], the half-life was 3.9 h under setting [2] and 2.2 h under setting [3].

In the case of `COc1ccc(CCn2c(-c3cccnc3)nc3cc(NC(=N[C@H]4C[C@H]5C[C@@H]([C@@H]4C)C5(C)C)N4CCN[C@@H](C(F)F)C4)ccc3c2=O)c(F)c1` [Example 220, (3R)-3-(difluoromethyl)-N-{3-[2-(2-fluoro-4-methoxyphenyl)ethyl]-4-oxo-2-pyridin-3-yl-3,4-dihydroquinazolin-7-yl}-N′-[(1S,2S,3S,5R)-2,6,6-trimethylbicyclo[3.1.1]hept-3-yl]piperazine-1-carboximidamide], the half-life was 3.1 h under setting [1], 2.5 h under setting [2] and 2.1 h under setting [3].

`COc1ccc(CCn2c(N3CCOCC3)nc3cc(NC(=N[C@H]4C[C@H]5C[C@@H]([C@@H]4C)C5(C)C)N4CC(=O)N[C@@H](C)C4)ccc3c2=O)c(F)c1` [Example 221, (3S)-N-{3-[2-(2-fluoro-4-methoxyphenyl)ethyl]-2-morpholin-4-yl-4-oxo-3,4-dihydroquinazolin-7-yl}-3-methyl-5-oxo-N′-[(1S,2S,3S,5R)-2,6,6-trimethylbicyclo[3.1.1]hept-3-yl]piperazine-1-carboximidamide]: the half-life runs as follows: under setting [1], 6.9 h; under setting [2], 2.9 h; under setting [3], 2.9 h.

In the case of `C[C@@H]1[C@@H](N=C(Nc2ccc3c(=O)n(CCc4ccc(Cl)cc4)c(-c4cnccn4)nc3c2)N2CC(=O)N[C@@H](C)C2)C[C@H]2C[C@@H]1C2(C)C` [Example 222, (3S)-N-{3-[2-(4-chlorophenyl)ethyl]-4-oxo-2-pyrazin-2-yl-3,4-dihydroquinazolin-7-yl}-3-methyl-5-oxo-N′-[(1S,2S,3S,5R)-2,6,6-trimethylbicyclo[3.1.1]hept-3-yl]piperazine-1-carboximidamide], the half-life was 8 h under setting [1], 2.7 h under setting [2] and 1.1 h under setting [3].

As to `COc1ccc(CCn2c(NC3CC3)nc3cc(NC(=N[C@H]4C[C@H]5C[C@@H]([C@@H]4C)C5(C)C)N4CC(=O)N[C@@H](C)C4)ccc3c2=O)c(F)c1` [Example 224, (3S)-N-{2-(cyclopropylamino)-3-[2-(2-fluoro-4-methoxyphenyl)ethyl]-4-oxo-3,4-dihydroquinazolin-7-yl}-3-methyl-5-oxo-N′-[(1S,2S,3S,5R)-2,6,6-trimethylbicyclo[3.1.1]hept-3-yl]piperazine-1-carboximidamide], the half-life runs as follows: under setting [1], 10 h; under setting [2], 3.1 h; under setting [3], 3 h.

On to `C[C@@H]1[C@@H](N=C(Nc2ccc3c(=O)n(CCc4ccc(Br)cc4)c(-c4cccnc4)nc3c2)N2CCN[C@@H](C(F)F)C2)C[C@H]2C[C@@H]1C2(C)C` [Example 227, (3R)-N-{3-[2-(4-bromophenyl)ethyl]-4-oxo-2-pyridin-3-yl-3,4-dihydroquinazolin-7-yl}-3-(difluoromethyl)-N′-[(1S,2S,3S,5R)-2,6,6-trimethylbicyclo[3.1.1]hept-3-yl]piperazine-1-carboximidamide], for which the half-life is 9.4 h under setting [2] and 3.9 h under setting [3].

As for `C[C@@H]1[C@@H](N=C(Nc2ccc3c(=O)n(CCc4ccc(Cl)cc4Cl)c(-c4cnccn4)nc3c2)N2CCN[C@@H](C(F)F)C2)C[C@H]2C[C@@H]1C2(C)C` [Example 228, (3R)-N-{3-[2-(2,4-dichlorophenyl)ethyl]-4-oxo-2-pyrazin-2-yl-3,4-dihydroquinazolin-7-yl}-3-(difluoromethyl)-N′-[(1S,2S,3S,5R)-2,6,6-trimethylbicyclo[3.1.1]hept-3-yl]piperazine-1-carboximidamide], the half-life under setting [2] was 9.1 h.

As to `C[C@@H]1C(/N=C(/Nc2ccc3c(=O)n(CCc4ccc(Cl)cc4Cl)c(-c4cnccn4)nc3c2)N2CC(=O)N[C@@H](C)C2)C[C@H]2C[C@@H]1C2(C)C` (stereo partly drawn) [Example 229, (3S)-N-{3-[2-(2,4-dichlorophenyl)ethyl]-4-oxo-2-pyrazin-2-yl-3,4-dihydroquinazolin-7-yl}-3-methyl-5-oxo-N′-[(1S,2S3S,5R)-2,6,6-trimethylbicyclo[3.1.1]hept-3-yl]piperazine-1-carboximidamide], the half-life under setting [1] is 13 h, the half-life under setting [2] was 16 h and the half-life under setting [3] was 9 h.

Regarding `C[C@@H]1[C@@H](N=C(Nc2ccc3c(=O)n(CCc4ccc(Br)cc4)c(-c4cccnc4)nc3c2)N2CC(=O)N[C@@H](C)C2)C[C@H]2C[C@@H]1C2(C)C` [Example 230, (3S)-N-{3-[2-(4-bromophenyl)ethyl]-4-oxo-2-pyridin-3-yl-3,4-dihydroquinazolin-7-yl}-3-methyl-5-oxo-N′-[(1S,2S,3S,5R)-2,6,6-trimethylbicyclo[3.1.1]hept-3-yl]piperazine-1-carboximidamide], the half-life was 5.9 h under setting [2] and 3.1 h under setting [3].

Turning to `C[C@@H]1[C@@H](N=C(Nc2ccc3c(=O)n(CCc4ccc(Br)cc4)c(-c4cnccn4)nc3c2)N2CCN[C@@H](C(F)F)C2)C[C@H]2C[C@@H]1C2(C)C` [Example 231, (3R)-N-{3-[2-(4bromophenyl)ethyl]-4-oxo-2-pyrazin-2-yl-3,4-dihydroquinazolin-7-yl]-3-(difluoromethyl)-N′-[(1S,2S,3S,5R)-2,6,6-trimethylbicyclo[3.1.1]hept-3-yl]piperazine-1-carboximidamide], the half-life under setting [1] is 15 h, the half-life under setting [2] was 4.6 h and the half-life under setting [3] is 2.6 h.

Take `C[C@@H]1[C@@H](N=C(Nc2ccc3c(=O)n(CCc4ccc(Br)cc4F)c(-c4cnccn4)nc3c2)N2CCN[C@@H](C(F)F)C2)C[C@H]2C[C@@H]1C2(C)C` [Example 233, (3R)-N-{3-[2-(4-bromo-2-fluorophenyl)ethyl]-4-oxo-2-pyrazin-2-yl-3,4-dihydroquinazolin-7-yl}-3-(difluoromethyl)-N′-[(1S,2S,3S,5R)-2,6,6-trimethylbicyclo[3.1.1]hept-3-yl]piperazine-1-carboximidamide]: the half-life by setting is: under setting [1], 15 h; under setting [2], 44 h; under setting [3], 6.4 h.

For `COc1ccc(CCn2c(-c3cnccn3)nc3cc(NC(=N[C@H]4C[C@H]5C[C@@H]([C@@H]4C)C5(C)C)N4CCN[C@@H](C(F)F)C4)ccc3c2=O)c(F)c1` [Example 234, (3R)-3-(difluoromethyl)-N-{3-[2-(2-fluoro-4-methoxyphenyl)ethyl]-4-oxo-2-pyrazin-2-yl-3,4-dihydroquinazolin-7-yl}-N′-[(1S,2S,3S,5R)-2,6,6-trimethylbicyclo[3.1.1]hept-3-yl]piperazine-1-carboximidamide], the half-life was 2.6 h under setting [1], 4.9 h under setting [2] and 3.5 h under setting [3].

In the case of `C[C@@H]1[C@@H](N=C(Nc2ccc3c(=O)n(CCc4ccc(Cl)cc4)c(-c4cnccn4)nc3c2)N2CCN[C@@H](C(F)F)C2)C[C@H]2C[C@@H]1C2(C)C` [Example 235, (3R)-N-{3-[2-(4-chlorophenyl)ethyl]-4-oxo-2-pyrazin-2-yl-3,4-dihydroquinazolin-7-yl}-3-(difluoromethyl)-N′-[(1 S,2S,3S,5R)-2,6,6-trimethylbicyclo[3.1.1]hept-3-yl]piperazine-1-carboximidamide], the half-life runs as follows: under setting [1], 6.1 h; under setting [2], 5.6 h; under setting [3], 4.7 h.

Turning to `C[C@@H]1[C@@H](N=C(Nc2ccc3c(=O)n(CCc4ccc(Cl)cc4)c(-c4c[nH]c5ccccc45)nc3c2)N2CC(=O)N[C@@H](C)C2)C[C@H]2C[C@@H]1C2(C)C` [Example 236, (3S)-N-[3-[2-(4-chlorophenyl)ethyl]-2-(1H-indol-3-yl)-4-oxo-3,4-dihydroquinazolin-7-yl]-3-methyl-5-oxo-N′-[(1S,2S,3S,5R)-2,6,6-trimethylbicyclo[3.1.1]hept-3-yl]piperazine-1-carboximidamide], the half-life is 4.2 h under setting [2] and 7.7 h under setting [3].

For the molecule `COc1ccc(CCn2c(CN3CCN(C)CC3)nc3cc(NC(=N[C@H]4C[C@H]5C[C@@H]([C@@H]4C)C5(C)C)N4CC(=O)N[C@@H](C)C4)ccc3c2=O)c(F)c1` [Example 239, (3S)-N-{3-[2-(2-fluoro-4-methoxyphenyl)ethyl]-2-[(4-methylpiperazin-1-yl)methyl]-4-oxo-3,4-dihydroquinazolin-7-yl}-3-methyl-5-oxo-N-[(1S,2S,3S,5R)-2,6,6-trimethylbicyclo[3.1.1]hept-3-yl]piperazine-1-carboximidamide], the half-life runs as follows: under setting [1], 3.6 h; under setting [3], 4.5 h.
